# Measured values published in US20250171423A1, “PHARMACEUTICAL COMPOUNDS FOR THE TREATMENT OF COMPLEMENT MEDIATED DISORDERS” (Achillion Pharmaceuticals, Inc., priority 2020, published 2025).
# Where two headings read alike, the source gives them in different places.
# Legend:
# [1] = rcm bond, DCM
# [2] = molecular target: T1, Human complement C1s enzyme (Homo sapiens, UniProt P09871); assay: Human C1s Enzyme Assay; type: biochemical; settings: human C1s 1.16 nM, 5 min preincubation, substrate Z-L-Lys-SBzl 100 μM, A405; read-out: C1s Protease Activity
# T1 construct: purified from human serum, Complement Technology, Inc; purchased Complement Technology, Inc; host or cells: human serum
# T1 sequence (P09871 438-688 limits assumed): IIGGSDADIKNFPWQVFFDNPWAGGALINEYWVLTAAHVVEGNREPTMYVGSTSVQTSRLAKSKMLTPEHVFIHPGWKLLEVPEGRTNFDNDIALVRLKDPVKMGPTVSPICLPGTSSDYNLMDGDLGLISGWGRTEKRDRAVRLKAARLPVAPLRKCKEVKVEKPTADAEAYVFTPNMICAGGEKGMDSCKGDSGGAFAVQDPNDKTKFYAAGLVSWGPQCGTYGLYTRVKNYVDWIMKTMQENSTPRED
# T1 sequence (P09871 16-437 partner limits assumed): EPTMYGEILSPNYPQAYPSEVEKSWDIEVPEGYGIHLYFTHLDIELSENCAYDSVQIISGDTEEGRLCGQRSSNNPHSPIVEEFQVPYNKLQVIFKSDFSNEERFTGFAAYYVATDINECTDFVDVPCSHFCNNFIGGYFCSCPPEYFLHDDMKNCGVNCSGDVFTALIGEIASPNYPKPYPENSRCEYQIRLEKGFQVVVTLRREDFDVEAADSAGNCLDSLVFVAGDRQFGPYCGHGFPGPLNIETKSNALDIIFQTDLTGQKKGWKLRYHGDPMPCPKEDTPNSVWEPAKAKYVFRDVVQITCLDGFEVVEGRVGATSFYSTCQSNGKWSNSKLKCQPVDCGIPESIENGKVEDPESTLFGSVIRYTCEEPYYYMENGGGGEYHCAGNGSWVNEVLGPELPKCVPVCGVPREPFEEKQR
# Outline: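 IC50 values were fitted by nonlinear regression to rates measured as A405 every 30 s for 30 min. The thioester substrate Z-L-Lys-SBzl and Ellman's reagent were each at 100 μM. Serum-derived C1s at 1.16 nM final had 5 min of room-temperature preincubation with compound (pH 7.5 Tris buffer, 1 M NaCl).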
Compound,IC50 [2] [nM],other results
CCOC(=O)[C@@H]1C[C@@]23COCCC/C=C/CCCCCCCCC(=O)N[C@@H](CCOc4ccccc4)C(=O)NCC(=O)N1[C@H]2C3,–,"ring closure, yield of all isomers ([1]; from C=CCCCCCCCCC(=O)N[C@@H](CCOc1ccccc1)C(=O)NCC(=O)N1[C@H]2C[C@@]2(COCCCC=C)C[C@H]1C(=O)OCC, Grubbs 1st catalyst, 15.3 mM, 28.0 °C, 16.0 h): 38.8%"
O=C1CCCCCCCC/C=C/CCCOC[C@@]23C[C@@H]2N(C(=O)CNC(=O)[C@H](CCOc2ccccc2)N1)[C@H](C(=O)OCc1ccccc1)C3,–,"ring closure, yield of all isomers ([1]; from C=CCCCCCCCCC(=O)N[C@@H](CCOc1ccccc1)C(=O)NCC(=O)N1[C@H]2C[C@@]2(COCCCC=C)C[C@H]1C(=O)OCc1ccccc1, Grubbs 1st catalyst, 14.0 mM, 28.0 °C, 16.0 h): 43.4%"
O=C1NCC(=O)N2[C@H]3C[C@@]3(COCCCC=CCCCCC/C=C\c3cc1ccc3Oc1ccc(F)cc1)C[C@H]2C(=O)OCc1ccccc1,–,"ring closure, yield of all isomers ([1]; from C=CCCCCC/C=C\c1cc(C(=O)NCC(=O)N2[C@H]3C[C@@]3(COCCCC=C)C[C@H]2C(=O)OCc2ccccc2)ccc1Oc1ccc(F)cc1, Grubbs 1st generation catalyst, 1.76 mM, 25.0 °C, 48.0 h): 7.8%"
"N=C(N)c1csc(CNC(=O)[C@@H]2C[C@H](C3CCCC3)CN2C(=O)CNC(=O)c2ccc(Oc3ccccc3)cc2)c1 [Compound 260, (2S,4R)-N-((4-carbamimidoylthiophen-2-yl)methyl)-4-cyclopentyl-1-((4-phenoxybenzoyl)glycyl) pyrrolidine-2-carboxamide]",< 100,–
"N=C(N)c1csc(CNC(=O)C2CC3(CCC3)CN2C(=O)CNC(=O)CCCOc2ccccc2)c1 (centres unmarked) [Compound 261, N-((4-carbamimidoylthiophen-2-yl)methyl)-6-((4-phenoxybutanoyl)glycyl)-6-azaspiro[3.4]octane-7-carboxamide]",< 100,–
"N=C(N)c1csc(CNC(=O)[C@@H]2CC3(COC3)CN2C(=O)CNC(=O)c2ccc(Oc3ccccc3)cc2)c1 [Compound 262, (S)-N-((4-carbamimidoylthiophen-2-yl)methyl)-6-((4-phenoxybenzoyl)glycyl)-2-oxa-6-azaspiro[3.4]octane-7-carboxamide]",< 100,–
"C[C@@H](NC(=O)[C@@H]1CC2(CN1C(=O)CNC(=O)c1ccc(C(F)(F)F)cc1)OCCO2)c1cc(C(=N)N)cs1 [Compound 263, (S)-N-((R)-1-(4-carbamimidoylthiophen-2-yl)ethyl)-7-((4-(trifluoromethyl)benzoyl)glycyl)-1,4-dioxa-7-azaspiro[4.4]nonane-8-carboxamide]",< 100,–
"C[C@@H](NC(=O)[C@@H]1CC2(CN1C(=O)CNC(=O)c1ccccc1)OCCO2)c1cc(C(=N)N)cs1 [Compound 264, (S)-7-(benzoylglycyl)-N-((R)-1-(4-carbamimidoylthiophen-2-yl)ethyl)-1,4-dioxa-7-azaspiro[4.4]nonane-8-carboxamide]",< 100,–
